Each structure is given as a SMILES string. Like-named read-outs stand apart in the source and are kept apart here.

Holding throughout (assay type): cell-based
Test [1] has as its system pS6K1 (p-p70 S6 Kinase (Thr389)) in MCF-7 cells. Briefly: AlphaLISA Ultra pS6K1 assay. The note with it: 2 hours compound incubation. The essentials:
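MCF-7 cells seeded 20–24 h, medium refreshed 2 h, then treated 2 h with compound (0.5% DMSO final). Lysates probed for Thr389-phosphorylated p70 S6K by AlphaLISA Ultra, 2 h acceptor then 2 h donor bead incubation, read on a multimode reader.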
On the technique in general: Alpha assays give light when donor and acceptor beads are brought close together.

Test [2] has as its system pAKT (p-Akt 1/2/3 (Ser473)) in MCF-7 cells. Briefly: AlphaLISA Ultra pAKT assay. The note with it: Homo sapiens, MCF7, 2 hours compound incubation. The essentials:
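AlphaLISA read-out (2 h acceptor-bead, then 2 h donor-bead incubation) on thawed lysates of MCF-7 cells exposed to compounds for 2 h in 0.5% DMSO. Cells had been plated 20-24 h and given fresh medium 2 h before dosing.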

The subject of a further test is MCF-7 cells. Briefly: Radioactive glucose uptake in MCF-7 cells. The note with it: Homo sapiens, MCF7, 3H-2DG uptake. As for the experimental part: Example 157: Radioactive Glucose Uptake in MCF-7 Cells
Assay Protocol • 1. Seed approximately 12,000 MCF-7 cells cultured without insulin per well in 96-well plates (BIOCOAT, #356690) and let the cells sit in hood for 30 min. (Cell culture medium: DMEM+10% FBS). • 2. Put the cell culture plates in TC incubator (5% CO2, 37° C.) and incubate overnight. • 3. Take out the cell plates and wash with prewarmed KRH buffer (37° C.) three times using BioTek plate washer. (KRH buffer preparation: 136 mM NaCl, 4.7 mM KCl, 1.25 mM MgCl2, 1.2 mM CaCl2), 20 mM HEPES, 0.1 mg/ml sodium pyruvate, 0.1% BSA, pH 7.4). • 4. Compound preparation and treatment: • a) Add 12 ul compound stock in 100% DMSO to the first column of Echo LDV plate • b) Serially dilute the compound solution in 100% DMSO (4 uL+8 uL DMSO) using Bravo for 9 doses • c) Dispense 350 nL compounds using Echo to the working plate. • d) i) Without compound preincubation condition, dispense 116 uL KRH buffer containing tritiated 2-deoxy-D-glucose (3H-2DG) and 2-deoxy-D-glucose (2DG) to the working plate and mix. • ii. With compound preincubation condition, dispense 110 uL KRH buffer only to the working plates and mix • e) Keep the compound working plate at 37° C. incubator until use • 5. Discard the KRH buffer (cells were kept in KRH buffer for 10-15 min before 2-DG addition) and transfer 100 uL compound working solution out to the cell culture plate using Bravo. Incubate for 20 mins at 37° C. (2DG final at 0.2 mM, 3H-2DG at 10 uCi/mL). • 6. Add prewarmed 50 uL KRH buffer (37° C.) containing 60 mM cold 2DG to the wells to stop the 2DG uptake using Multidrop combi • 7. Wash the cells with prewarmed PBS three times using BioTek plate washer • 8. Add 50 uL lysis buffer (0.1 M NaOH) into the assay plate to lyse the cells using Bravo and shake at 800 rpm for 30 min. • 9. Mix and transfer 20 uL lysate to a new white plate (Corning, #3610) and add 200 uL MicroScint-20 using Bravo • 10. Shake the plate at 1000 rpm for 30 min and count in a MicroBeta plate reader.

Take `Cc1cc(C)c(N(CCO)C2CCN(c3ccccc3C#N)CC2)cc1C(=O)N1CCN(c2ccccc2S(N)(=O)=O)CC1` [I-1, 2-(4-(5-((1-(2-Cyanophenyl)piperidin-4-yl)(2-hydroxyethyl)amino)-2,4-dimethylbenzoyl)piperazin-1-yl)benzenesulfonamide]: the IC50 (as a rule, the midpoint of a concentration-inhibition curve) is 10 to 1000 nM in test [1] (Homo sapiens, MCF7, 2 h); greater than 10000 nM in test [2]; 10 to 1000 nM in the test with MCF-7 cells.

For the compound `Cc1cc(C)c(C(=O)N2CCN(c3ccccc3S(N)(=O)=O)CC2)cc1N[C@@H]1CCN(c2ccccc2C#N)C[C@@H]1C` [I-171, 2-(4-(5-(((3S,4R)-1-(2-cyanophenyl)-3-methylpiperidin-4-yl)amino)-2,4-dimethylbenzoyl)piperazin-1-yl)benzenesulfonamide], the half-maximal inhibitory concentration (IC50) in test [1] (Homo sapiens, MCF7, 2 h) is 10 to 1000 nM; in test [2] it was greater than 10000 nM; in the test with MCF-7 cells it was 10 to 1000 nM.

On to `Cc1cc(C)c(C(=O)N2CCN(c3ncccc3S(N)(=O)=O)CC2)cc1NC1CCN(c2ccccc2C#N)CC1` [I-60], for which the IC50 in test [1] (Homo sapiens, MCF7, 2 h) was 1000 to 3000 nM; in test [2], greater than 10000 nM; in the test on MCF-7 cells, 10 to 1000 nM.

As for `Cc1cc(C)c(S(=O)(=O)N2CCN(c3ccccc3S(N)(=O)=O)CC2)nc1NC1CCN(c2ccccc2C#N)CC1` [I-111, 2-(4-(6-(1-(2-Cyanophenyl)piperidin-4-ylamino)-3,5-dimethylpyridin-2-ylsulfonyl)piperazin-1-yl)benzenesulfonamide], the IC50 in test [1] (Homo sapiens, MCF7, 2 h) was 10 to 1000 nM; in test [2], greater than 10000 nM; in the test on MCF-7 cells, 10 to 1000 nM.

For the compound `Cc1cc(C)c(C(=O)N2CCN(c3ccccn3)C(=O)C2)c(C)c1NC1CCN(c2ccccc2C#N)CC1` [I-138, 2-[4-({2,4,6-trimethyl-3-[3-oxo-4-(pyridin-2-yl)piperazine-1-carbonyl]phenyl}amino)piperidin-1-yl] benzonitrile], the IC50 in test [1] (Homo sapiens, MCF7, 2 h) was 10 to 1000 nM; in test [2], greater than 10000 nM; in the test on MCF-7 cells, 10 to 1000 nM.

On to `Cc1cccc(N2CCN(C(=O)c3cc(NC4CCN(c5ccccc5C#N)CC4)c(C)cc3C)C[C@H]2CO)n1` [I-102, (S)-2-(4-(5-(3-(Hydroxymethyl)-4-(6-methylpyridin-2-yl)piperazine-1-carbonyl)-2,4-dimethylphenylamino)piperidin-1-yl)benzonitrile], for which the IC50 is 10 to 1000 nM in test [1] (Homo sapiens, MCF7, 2 h); greater than 10000 nM in test [2]; 10 to 1000 nM in the test with MCF-7 cells.

As for `Cc1cc(C)c(C(=O)N2CCN(c3cc(F)ccn3)[C@H](CO)C2)cc1NC1CCN(c2ccccc2C#N)CC1` [I-100, (S)-2-(4-(5-(4-(4-Fluoropyridin-2-yl)-3-(hydroxymethyl)piperazine-1-carbonyl)-2,4-dimethylphenylamino)piperidin-1-yl)benzonitrile], the IC50 was 10 to 1000 nM in test [1] (Homo sapiens, MCF7, 2 h); greater than 10000 nM in test [2]; 10 to 1000 nM with MCF-7 cells.

As for `Cc1cc(C)c(C(=O)N2CCN(c3cccc(F)c3[S@@](C)(=N)=O)CC2)cc1NC1CCN(c2ccccc2C#N)CC1` (single isomer, unassigned) [I-88], the IC50 in test [1] (Homo sapiens, MCF7, 2 h) was 10 to 1000 nM; in test [2], greater than 10000 nM; with MCF-7 cells it was 10 to 1000 nM.

In the case of `Cc1cc(C)c(C(=O)N2CCN(c3ccccc3S(N)(=O)=O)C[C@@H]2C)nc1NC1CCN(c2ccccc2C#N)CC1` [I-26, (S)-2-(4-(6-(1-(2-Cyanophenyl)piperidin-4-ylamino)-3,5-dimethylpicolinoyl)-3-methylpiperazin-1-yl)benzenesulfonamide], the IC50 in test [1] (Homo sapiens, MCF7, 2 h) was 10 to 1000 nM; in test [2] it was greater than 10000 nM; in the test on MCF-7 cells, 10 to 1000 nM.

Take `Cc1cc(C)c(C(=O)N2CCN(c3cccc(S(N)(=O)=O)c3)CC2)cc1NC1CCN(c2ccccc2Cl)CC1` [I-4, 3-(4-(5-(1-(2-Chlorophenyl)piperidin-4-ylamino)-2,4-dimethylbenzoyl)piperazin-1-yl)benzenesulfonamide]: the IC50 in test [1] (Homo sapiens, MCF7, 2 h) is 1000 to 3000 nM; in test [2], greater than 10000 nM; in the test with MCF-7 cells it was greater than 10000 nM.

Consider `Cc1cc(C)c(C(=O)N2CCN(c3cccnc3S(N)(=O)=O)CC2)cc1NC1CCN(c2ccccc2C#N)CC1` [I-3, 3-(4-(5-(1-(2-Cyanophenyl)piperidin-4-ylamino)-2,4-dimethylbenzoyl)piperazin-1-yl)pyridine-2-sulfonamide], for which the IC50 is 10 to 1000 nM in test [1] (Homo sapiens, MCF7, 2 h); greater than 10000 nM in test [2]; 10 to 1000 nM in the test with MCF-7 cells.

Take `Cc1ccc(NC2CCN(c3ccccc3C#N)CC2)cc1C(=O)N1CCN(c2ccccc2S(N)(=O)=O)CC1` [I-22, 2-(4-(5-(1-(2-Cyanophenyl)piperidin-4-ylamino)-2-methylbenzoyl)piperazin-1-yl)benzenesulfonamide]: the IC50 in test [1] (Homo sapiens, MCF7, 2 h) was 3000 to 5000 nM; in test [2], greater than 10000 nM; in the test on MCF-7 cells, 3000 to 5000 nM.

Turning to `Cc1cc(C)c(C(=O)N2CCN(c3ccccc3S(C)(=N)=O)CC2)cc1NC1CCN(c2ccccc2C#N)CC1` (single isomer, unassigned) [I-49, 2-(4-{[5-(4-{2-[(S or R)-imino(methyl)oxo-λ^6-sulfanyl]phenyl}piperazine-1-carbonyl)-2,4-dimethylphenyl]amino}piperidin-1-yl)benzonitrile], the IC50 in test [1] (read-out: pS6K1 in MCF7: IC50) was 10 to 1000 nM; in test [2] it was greater than 10000 nM; in the test with MCF-7 cells, 10 to 1000 nM.

In the case of `Cc1cc(C)c(C(=O)N2CCN(c3cccc(F)c3S(N)(=O)=O)C[C@@H]2C)c(C)c1NC1CCN(c2ccc(F)cc2C#N)CC1` [I-182, (S)-2-(4-(3-((1-(2-cyano-4-fluorophenyl)piperidin-4-yl)amino)-2,4,6-trimethylbenzoyl)-3-methylpiperazin-1-yl)-6-fluorobenzenesulfonamide], the IC50 in test [1] (Homo sapiens, MCF7, 2 h) is 10 to 1000 nM; in test [2], greater than 10000 nM; with MCF-7 cells, 10 to 1000 nM.

Consider `Cc1cc(C)c(C(=O)N2CCN(c3cccc4c3NC(=O)C4)CC2)cc1NC1CCN(c2ccccc2C#N)CC1` [I-61, 2-(4-(2,4-Dimethyl-5-(4-(2-oxoindolin-7-yl)piperazine-1-carbonyl)phenylamino)piperidin-1-yl)benzonitrile], for which the IC50 is 10 to 1000 nM in test [1] (Homo sapiens, MCF7, 2 h); greater than 10000 nM in test [2]; 10 to 1000 nM in the test on MCF-7 cells.

In the case of `Cc1cc(C)c(C(=O)N2CCN(c3cccnn3)[C@H](CN)C2)c(C)c1NC1CCN(c2ccccc2C#N)CC1` [I-194, (R)-2-(4-(3-(3-(aminomethyl)-4-(pyridazin-3-yl)piperazine-1-carbonyl)-2,4,6-trimethylphenylamino)piperidin-1-yl)benzonitrile], the IC50 in test [1] (Homo sapiens, MCF7, 2 h) was 10 to 1000 nM; in test [2], greater than 10000 nM; with MCF-7 cells it was 10 to 1000 nM.

In the case of `Cc1cc(C)c(C(=O)N2CCN(c3ncccc3S(N)(=O)=O)CC2)c(C)c1NC1CCN(c2ccccc2C#N)CC1` [I-15, 2-(4-(3-(1-(2-Cyanophenyl)piperidin-4-ylamino)-2,4,6-trimethylbenzoyl)piperazin-1-yl)pyridine-3-sulfonamide], the IC50 in test [1] (Homo sapiens, MCF7, 2 h) was 10 to 1000 nM; in test [2], greater than 10000 nM; in the test on MCF-7 cells it was 10 to 1000 nM.

For the compound `Cc1cc(C)c(C(=O)N2CCN(c3ccccn3)[C@H](CO)C2)c(C)c1NC1CCN(c2cccnn2)CC1` [I-159, [(2S)-1-(pyridin-2-yl)-4-(2,4,6-trimethyl-3-{[1-(pyridazin-3-yl)piperidin-4-yl]amino}benzoyl)piperazin-2-yl]MeOH], the IC50 in test [1] (Homo sapiens, MCF7, 2 h) was 10 to 1000 nM; in test [2], greater than 10000 nM; in the test with MCF-7 cells it was 10 to 1000 nM.

Take `Cc1cc(C)c(C(=O)N2CCN(c3nnnn3C)[C@H](CO)C2)cc1NC1CCN(c2ccccc2C#N)CC1` [I-91, (S)-2-(4-(5-(3-(Hydroxymethyl)-4-(1-methyl-1H-tetrazol-5-yl)piperazine-1-carbonyl)-2,4-dimethylphenylamino)piperidin-1-yl) benzonitrile]: the IC50 was 5000 to 10000 nM in test [1] (Homo sapiens, MCF7, 2 h); greater than 10000 nM in test [2]; 1000 to 3000 nM in the test with MCF-7 cells.

On to `Cc1cc(C)c(C(=O)N2CCN(c3cccc(F)c3[S@@](C)(=N)=O)C[C@@H]2C)c(C)c1NC1CCN(c2ccc(F)cc2C#N)CC1` [I-191, 5-fluoro-2-(4-(3-((2S)-4-(3-fluoro-2-(S-methylsulfonimidoyl)phenyl)-2-methylpiperazine-1-carbonyl)-2,4,6-trimethylphenylamino)piperidin-1-yl)benzonitrile], for which the 50% inhibitory concentration (IC50) in test [1] (Homo sapiens, MCF7, 2 h) is 10 to 1000 nM; in test [2], greater than 10000 nM; with MCF-7 cells it was 10 to 1000 nM.

For the origin of these results see patent US10844013B2, “Phenyl amino piperidine mTORC inhibitors and uses thereof” (Navitor Pharmaceuticals, Inc., priority 2016, dated 2020).
